Laboratory results from patent US20090247466A1, “NEUROPROTECTIVE INTEGRIN-BINDING PEPTIDE AND ANGIOPOIETIN-1 TREATMENTS” (University of Louisville Research Foundation, priority 2008, published 2009).
Ends that are not written are not given here.

Experiments:
[1] = Blood cell counts after 7 days of treatment; assay type: in vivo, mice; parameters: key to Leukocytes eosinophils / Leukocytes basophils / Erythrocytes / Leukocytes total / Leukocytes neutrophils / Leukocytes lymphocytes / Leukocytes monocytes: N = within the normal range; conditions: daily C16 for 7 days after T9 contusion; individual mice A, B
Protocol: (§1) To determine potential effects of C16 on the number of peripheral leukocytes, 1 ml blood was drawn from the heart just before perfusion-fixation in mice that had been treated with vehicle (n=3) or C16 (n=2) for 7 days treated. The blood was collected in EDTA-coated tubes and blood counts were performed by Drew Scientific Inc. (Oxford, Conn.).
as §1, with “vehicle” for “vehicle (n=3)”, “C16” for “C16 (n=2)”, “days.” for “days treated.”

peripheral leukocytes = experiment: Blood cell counts after 7 days of treatment; assay type: in vivo, mice; parameters: key to Leukocytes eosinophils / Leukocytes basophils / Erythrocytes / Leukocytes total / Leukocytes neutrophils / Leukocytes lymphocytes / Leukocytes monocytes: N = within the normal range
Protocol: as §1
as §1, with “vehicle” for “vehicle (n=3)”, “C16” for “C16 (n=2)”, “days.” for “days treated.”

[2] = test system: C57BL/6 mice with spinal cord contusion at T9; experiment: White matter sparing at the injury epicenter (eriochrome cyanine myelin staining) after spinal cord contusion; assay type: in vivo
Protocol: These mice were tested for overground locomotion using the Basso Mouse Scale (BMS) before the contusion and on the day of euthanasia.
To label endothelial cells of perfused blood vessels, 4 of the vehicle and 4 of the C16 mice received an intravenous injection of the lectin LEA 20 minutes before euthanasia.
To determine whether […] C16 would be neuroprotective, vehicle (n=8) or 100 μg/day C16 (n=9) was injected over 7 days. These mice were tested using the BMS before the contusion and on the last day.
To determine whether C16 had lasting neuroprotective effects, mice received daily injections with vehicle (n=8) or 100 μg/day C16 (n=9) for 14 days. […] These mice were evaluated every week by BMS and were euthanized after 6 weeks. […]
To detect myelin in white matter tracts, one of every five of the transverse sections at each rostro-caudal 1 mm level were stained with a modified eriochrome cyanine (EC) staining protocol (Rabchevsky et al., 2001, J Neurotrauma 18:513-522). […] The injury epicenter was determined for each mouse by the rostro-caudal level that contained the least amount of spared myelin per transverse section. […]
Sections were examined using a Leica DMIRE2 brightfield and fluorescence microscope and images digitized with an attached Spot RTKE camera (Diagnostics Inc., Sterling Height, Mich.). […] The area of LEA was determined with Scion Image. […]

[3] = test system: C57BL/6 mice with spinal cord contusion at T9; experiment: Overground locomotor function, Basso Mouse Scale (BMS), after spinal cord contusion; assay type: in vivo
Protocol: To determine whether C16 had lasting neuroprotective effects, mice received daily injections with vehicle (n=8) or 100 μg/day C16 (n=9) for 14 days. The treatment was started 4 hours after the spinal cord injury consistent with the time it takes to diagnose most injured humans in the developed world. These mice were evaluated every week by BMS and were euthanized after 6 weeks.
Functional recovery from the spinal cord contusion was determined weekly by open-field overground locomotor performance using the Basso Mouse Scale (BMS; Basso et al., 2006, J Neurotrauma 23:635-659), with scores ranging from 0 (complete paralysis) to 9 (normal mobility). Left and right sides are scored separately and averaged for each mouse. Weight bearing is seen at a score of 5 but not at 4. Locomotor function was measured by placing the mouse for 4 min in the center of a circular enclosure (90 cm in diameter, 7 cm wall height) made of molded plastic with a smooth, non-slip floor. Before each evaluation, the mice were examined carefully for perineal infections, wounds in the limbs, or tail and foot autophagia, as they could influence stepping. Such mice were excluded from the BMS test. The mice were tested for baseline values before surgery. The mice in the 7-day experiments were tested on the day of euthanasia and the mice in the 6 week chronic group were tested every week starting on day 8 or 9 after the contusion.
Adult C57B1/6 mice received a contusion injury at the thoracic spine level 9. Starting 4 hours after the injury, the mice received daily intravenous injections of control vehicle, Ang-1 or Ang-1 plus C16 (all at 100 μg/day) for 7 days.
Functional recovery after SCI was determined weekly by open-field overground locomotor performance using the BMS (Basso et al., J Neurotrauma, 23(5), 635-659 (2006)). Before each evaluation, the mice were examined carefully for perineal infections, wounds in the limbs, or tail and foot autophagia, as they could influence stepping. Such mice were excluded from the BMS test. The mice were acclimatized to the testing area for at least 25 minutes, including individually handling for at least 5 minutes, for 3 days and then tested for baseline values before surgery. The mice in the 7-day experiments were tested on the day of euthanasia and the mice in the 6 week chronic group were tested every week starting on day 8 or 9 after the contusion.

[4] = test system: C57BL/6 mice with spinal cord contusion at T9; experiment: Perfused (LEA lectin-labeled) blood vessels in the injury penumbra after spinal cord contusion; assay type: in vivo; conditions: single i.v. injection immediately after injury; 24 hours
Protocol: Normal (n=3) and 7 day sham operated mice (n=5) also received intravenous LEA injections.
To pre-label perfused blood vessels, 100 μg in 100 μl of FITC-conjugated LEA (Lectin from Lycopersicon esculentum; Sigma, St. Louis, Mo.) was injected into the other jugular vein 30 minutes before euthanasia.

[5] = test system: C57BL/6 mice with spinal cord contusion at T9; experiment: Inflammation: CD45 and CD68 immunostained area after spinal cord contusion; assay type: in vivo
Protocol: Adjacent sections at each mm level were processed for double- or triple immunofluorescent staining to detect CD45 (leukocytes), CD68 (activated microglia/macrophages), PECAM1 (endothelial cells), αv, β3 or α5β1 integrin, or in some cases laminin (to define the so-called heterodomain or area of tissue loss). Slides were warmed for 20 minutes on a slide warmer, a ring of wax applied around the sections with a PAP pen (Invitrogen™, Carlsbad, Calif.) and the slides rinsed in 0.1 M Tris-buffered saline (TBS) for 10 min. […] To measure the volume of tissue loss as determined by laminin staining in the horizontal sections, the sections were processed using an ABC-DAB staining protocol.
Sections were examined using a Leica DMIRE2 brightfield and fluorescence microscope and images digitized with an attached Spot RTKE camera (Diagnostics Inc., Sterling Height, Mich.). EC, CD45, CD68 and PECAM staining through the entire plane of the transverse sections was digitized using a 5× objective and the area occupied by the staining calculated for the three sections per rostro-caudal level by using the threshold feature of Scion Image software (Scion Corporation, Frederick, Md.). […] The area of LEA was determined with Scion Image. To provide a measure of the number of blood vessels, the number of LEA-positive vessels intersecting 100 μm spaced horizontal (5) and vertical (6) lines were counted in each image. […] The software calculated the volume based on the section interval and the area per section and this was expressed as a percentage of the total 10 mm segment. […]

[6] = test system: C57BL/6 mice with spinal cord contusion at T9; experiment: Blood vessel permeability: luciferase extravasated into the spinal cord at the injury site; assay type: in vivo
Protocol: Increased permeability contributes to tissue loss following SCI and was measured here by the amount of luciferase that extravasated into the spinal cord at the injury site after i.v. injection 20 minutes before analysis.

[7] = target: human αvβ3 integrin (human) (UniProt P06756); experiment: cell-based or functional assay
Sequence of human αvβ3 integrin (human) (P06756 31-1048, chain 1 of 2): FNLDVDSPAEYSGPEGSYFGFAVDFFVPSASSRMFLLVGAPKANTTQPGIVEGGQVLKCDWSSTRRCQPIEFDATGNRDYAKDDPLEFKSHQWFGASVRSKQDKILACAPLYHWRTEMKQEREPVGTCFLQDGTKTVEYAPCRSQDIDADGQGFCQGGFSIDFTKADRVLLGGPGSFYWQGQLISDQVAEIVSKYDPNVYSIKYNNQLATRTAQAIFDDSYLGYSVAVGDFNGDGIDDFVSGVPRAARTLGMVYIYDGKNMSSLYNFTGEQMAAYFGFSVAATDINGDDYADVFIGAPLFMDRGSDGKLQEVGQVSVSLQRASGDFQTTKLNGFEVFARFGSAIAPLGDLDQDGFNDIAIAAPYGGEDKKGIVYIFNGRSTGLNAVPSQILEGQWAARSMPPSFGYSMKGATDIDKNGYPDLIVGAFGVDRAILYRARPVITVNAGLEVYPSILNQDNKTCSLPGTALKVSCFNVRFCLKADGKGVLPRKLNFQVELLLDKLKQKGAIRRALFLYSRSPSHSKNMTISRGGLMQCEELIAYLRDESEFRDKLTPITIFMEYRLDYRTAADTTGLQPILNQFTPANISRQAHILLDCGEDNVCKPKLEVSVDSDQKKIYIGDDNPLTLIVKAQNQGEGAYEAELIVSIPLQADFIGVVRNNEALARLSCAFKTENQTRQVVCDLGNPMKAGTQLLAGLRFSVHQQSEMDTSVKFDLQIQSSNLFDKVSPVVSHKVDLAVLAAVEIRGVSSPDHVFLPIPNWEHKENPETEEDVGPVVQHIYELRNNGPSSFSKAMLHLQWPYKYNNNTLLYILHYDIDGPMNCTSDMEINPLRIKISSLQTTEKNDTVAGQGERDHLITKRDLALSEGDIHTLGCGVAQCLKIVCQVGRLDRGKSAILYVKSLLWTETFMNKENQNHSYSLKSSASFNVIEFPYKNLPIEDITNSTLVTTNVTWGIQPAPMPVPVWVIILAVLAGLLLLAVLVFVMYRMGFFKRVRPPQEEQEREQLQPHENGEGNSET
Sequence of human αvβ3 integrin (human) (P05106 27-788, chain 2 of 2, further chain): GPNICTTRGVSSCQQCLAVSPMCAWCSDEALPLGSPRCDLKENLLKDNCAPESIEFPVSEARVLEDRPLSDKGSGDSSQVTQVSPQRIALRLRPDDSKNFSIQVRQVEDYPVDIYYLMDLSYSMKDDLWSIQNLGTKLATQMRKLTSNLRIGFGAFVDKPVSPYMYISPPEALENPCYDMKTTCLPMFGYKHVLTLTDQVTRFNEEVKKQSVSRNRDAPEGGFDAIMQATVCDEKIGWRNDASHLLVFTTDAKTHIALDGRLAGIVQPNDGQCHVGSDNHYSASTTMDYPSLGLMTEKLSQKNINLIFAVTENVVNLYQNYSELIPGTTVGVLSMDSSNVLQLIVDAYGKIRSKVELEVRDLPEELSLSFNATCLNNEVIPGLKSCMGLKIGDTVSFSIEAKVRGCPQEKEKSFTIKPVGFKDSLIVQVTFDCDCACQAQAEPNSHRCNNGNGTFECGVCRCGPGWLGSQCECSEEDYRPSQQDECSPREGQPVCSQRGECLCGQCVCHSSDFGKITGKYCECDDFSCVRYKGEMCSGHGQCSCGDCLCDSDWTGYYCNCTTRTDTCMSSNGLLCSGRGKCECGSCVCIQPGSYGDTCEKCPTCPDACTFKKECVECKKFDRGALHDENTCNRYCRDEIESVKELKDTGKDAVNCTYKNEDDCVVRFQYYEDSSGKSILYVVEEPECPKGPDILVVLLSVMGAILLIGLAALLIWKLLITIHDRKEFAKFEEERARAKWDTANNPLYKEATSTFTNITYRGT

[8] = test system: monocytic THP-1 cells across human aortic endothelial cells; experiment: Transendothelial migration assay; assay type: cell-based; conditions: SP3 600 μM; absence or presence of TNFα
Protocol: Human aortic endothelial cells (Lonza, Wakersville, Md.) were plated on permeable filters in Transwell® culture plates (Costar, Cambridge, Mass.) at 4×10^4 cells per well. They were grown for 72-96 hours to reach confluency at 37° C. in Dulbecco's modified Eagle's medium Ham's F-12 (DMEM F-12; BioWhittaker, Walkersville, Md.) plus EGM-2 growth factor supplements (EGM-2 SingleQuots™ from Lonza Walkersville Inc, containing hydrocortisone, hEGF, FBS, VEGF, hFGF-B, R3-IGF-1, ascorbic acid, heparin and gentamicin/amphotericin-B) and 10-20% fetal calf serum. Afterwards, the inner chamber of the Transwell® system was loaded with 2×10^5 monocytic THP-1 cells (American Type Culture Collection, Manassas, Va.) and preincubated in medium with or without 15 ng/ml of TNF-α (PeproTech, Rocky Hill, N.J.) for 5 hr at 37° C. C16 peptide was added into the medium of the inner chamber at 25, 50, 100, 200, 400, 600 μM, and SP3 was added at 600 μM. […] The monocytic THP-1 cells were allowed to transmigrate for 6 h at 37° C. and the number of THP-1 cells that crossed endothelial cell layer was counted. […]
Human aortic ECs (BioWhittaker, Walkersville, Md.) were plated on permeable filters in Transwell culture plates (Costar, Cambridge, Mass.) at 4×10^4 cells per well. […] THP-1 cells were allowed to transmigrate for 6 h at 37° C. and the number of THP-1 cells that crossed EC layer was counted. […]

[9] = daily C16 for 7 days after T9 contusion, individual mice A, B

Question: Which results are given for “KAFDITYVRLKF [C16, KAFDITYVRLKF (SEQ ID NO:2)]”?
Answer: Erythrocytes [1]: N; Leukocytes basophils (peripheral leukocytes; [9]): N; Leukocytes eosinophils (peripheral leukocytes; [9]): N; Leukocytes lymphocytes (peripheral leukocytes; [9]): N; Leukocytes monocytes (peripheral leukocytes; [9]): N; Leukocytes neutrophils (peripheral leukocytes; [9]): N; Leukocytes total (peripheral leukocytes; [9]): N; Thrombocytes (peripheral leukocytes; [9]): low; white cell counts (peripheral leukocytes; treated for 7 days): within normal range

Question: Which results are given for “Angiopoietin-1 tetra-fibrinogen-like domain [Ang-1]”?
Answer: cross-sectional area of white matter at the epicenter compared with vehicle ([2]; 7 and 42 day post-injury times): greater; BMS score (9 point scale) ([3]; 100 μg/day i.v. for 7 days starting 4 hours after injury, behavioral analyses over 6 weeks): 5.5; mice with a BMS score of 7 or above ([3]; i.v. for 7 days, at 43 days): 4/14; mice with a BMS score of 7 and above ([3]; last two weeks of testing (5 and 6 weeks after injury)): 28%; number of LEA-positive blood vessels in the penumbra, of sham [4]: 40%; smaller area of CD68 staining than vehicle treated mice ([5]; 24 hours, 3 mm rostral to 3 mm caudal from the epicenter): ~25%; inflammation (CD45, CD68 area) compared with vehicle ([5]; all post-injury times, 3 mm rostral to 3 mm caudal from the epicenter): reduced inflammation; luciferase values versus vehicle ([6]; 24 hours following SCI): not different; luciferase values, of vehicle ([6]; 72 hours following SCI): 55±13%

Question: Which monocyte (THP-1) transmigration across an endothelial cell layer, blocking antibody, with TNFα, without C16 [7] does the source give for “azide-free blocking antibody against human αvβ3 (Cat# MAB1976Z, Chemicon; also known as LM609)” here?
Answer: Its monocyte (THP-1) transmigration across an endothelial cell layer, blocking antibody, with TNFα, without C16 is 64%.

Question: And the monocyte transmigration across an EC layer, reduction by blocking antibody [7]?
Answer: The monocyte transmigration across an EC layer, reduction by blocking antibody was 36%.

Question: What does the source list for “RFSVAVSSHYPFWSR (SEQ ID NO:3) [SP3, reference compound]”?
Answer: white matter cross-sectional area at the injury epicenter, percent of sham-operated mice ([2]; 100 μg/day i.v. daily for 7 days, 7 days after contusion): 30±5%; BMS score ([3]; 100 μg/day i.v. daily for 7 days, 7 days following injury): 0.7±0.3; effect on the inflammatory response ([5]; control peptide 100 μg/day, at 7 days): no significant effect; effect on monocyte transmigration [8]: no significant effect
